# Assay results published in ChEMBL document CHEMBL3044945, “Synthesis of 1,3,5-trisubstituted pyrazoline nucleus containing compounds and screening for antimicrobial activity” (2012).
# Tests used:
# Type in all cases: functional
# [1] = system: Pseudomonas fluorescens; assay: Antibacterial activity against Pseudomonas fluorescens MTCC 2421 after 24 to 48 hr by tube dilution method
# [2] = system: Pseudomonas fluorescens; assay: Antibacterial activity against Pseudomonas fluorescens MTCC 2421 at 500 ug/ml after 48 hr by cup-plate method; conditions: MTCC 2421, 48 h, read-out: DIZ
# [3] = system: Bacillus subtilis; assay: Antibacterial activity against Bacillus subtilis MTCC 441 at 750 ug/ml after 48 hr by cup-plate method; conditions: MTCC 441, 48 h, read-out: DIZ
# [4] = system: Escherichia coli; assay: Antibacterial activity against Escherichia coli MTCC 1573 at 250 ug/ml after 48 hr by cup-plate method; conditions: MTCC 1573, 48 h, read-out: DIZ
# [5] = system: Bacillus pumilus; assay: Antibacterial activity against Bacillus pumilus MTCC 1456 at 250 ug/ml after 48 hr by cup-plate method; conditions: MTCC 1456, 48 h, read-out: DIZ
# [6] = system: Pseudomonas aeruginosa; assay: Antibacterial activity against Pseudomonas aeruginosa MTCC 424 at 500 ug/ml after 48 hr by cup-plate method; conditions: MTCC 424, 48 h, read-out: DIZ
# [7] = system: Escherichia coli; assay: Antibacterial activity against Escherichia coli MTCC 1573 at 1250 ug/ml after 48 hr by cup-plate method; conditions: MTCC 1573, 48 h, read-out: DIZ
# [8] = system: Escherichia coli; assay: Antibacterial activity against Escherichia coli MTCC 1573 at 1000 ug/ml after 48 hr by cup-plate method; conditions: MTCC 1573, 48 h, read-out: DIZ
# [9] = system: Pseudomonas aeruginosa; assay: Antibacterial activity against Pseudomonas aeruginosa MTCC 424 at 1250 ug/ml after 48 hr by cup-plate method; conditions: MTCC 424, 48 h, read-out: DIZ
# [10] = system: Staphylococcus aureus; assay: Antibacterial activity against Staphylococcus aureus MTCC 1430 at 750 ug/ml after 48 hr by cup-plate method; conditions: MTCC 1430, 48 h, read-out: DIZ
# [11] = system: Pseudomonas aeruginosa; assay: Antibacterial activity against Pseudomonas aeruginosa MTCC 424 after 24 to 48 hr by tube dilution method
# [12] = system: Bacillus subtilis; assay: Antibacterial activity against Bacillus subtilis MTCC 441 at 500 ug/ml after 48 hr by cup-plate method; conditions: MTCC 441, 48 h, read-out: DIZ
# [13] = system: Pseudomonas aeruginosa; assay: Antibacterial activity against Pseudomonas aeruginosa MTCC 424 at 250 ug/ml after 48 hr by cup-plate method; conditions: MTCC 424, 48 h, read-out: DIZ
# [14] = system: Aspergillus niger; assay: Antifungal activity against Aspergillus niger MTCC 2546 at 1250 ug/ml after 48 hr by cup-plate method; conditions: MTCC 2546, 48 h, read-out: DIZ
# [15] = system: Bacillus pumilus; assay: Antibacterial activity against Bacillus pumilus MTCC 1456 at 500 ug/ml after 48 hr by cup-plate method; conditions: MTCC 1456, 48 h, read-out: DIZ
# [16] = system: Staphylococcus aureus; assay: Antibacterial activity against Staphylococcus aureus MTCC 1430 at 500 ug/ml after 48 hr by cup-plate method; conditions: MTCC 1430, 48 h, read-out: DIZ
# [17] = system: Bacillus subtilis; assay: Antibacterial activity against Bacillus subtilis MTCC 441 after 24 to 48 hr by tube dilution method
# [18] = system: Pseudomonas fluorescens; assay: Antibacterial activity against Pseudomonas fluorescens MTCC 2421 at 750 ug/ml after 48 hr by cup-plate method; conditions: MTCC 2421, 48 h, read-out: DIZ
# [19] = system: Pseudomonas aeruginosa; assay: Antibacterial activity against Pseudomonas aeruginosa MTCC 424 at 1000 ug/ml after 48 hr by cup-plate method; conditions: MTCC 424, 48 h, read-out: DIZ
# [20] = system: Pseudomonas aeruginosa; assay: Antibacterial activity against Pseudomonas aeruginosa MTCC 424 at 100 ug/ml after 48 hr by cup-plate method; conditions: MTCC 424, 48 h, read-out: DIZ
# [21] = system: Bacillus pumilus; assay: Antibacterial activity against Bacillus pumilus MTCC 1456 after 24 to 48 hr by tube dilution method
# [22] = system: Bacillus subtilis; assay: Antibacterial activity against Bacillus subtilis MTCC 441 at 250 ug/ml after 48 hr by cup-plate method; conditions: MTCC 441, 48 h, read-out: DIZ
# [23] = system: Pseudomonas aeruginosa; assay: Antibacterial activity against Pseudomonas aeruginosa MTCC 424 at 750 ug/ml after 48 hr by cup-plate method; conditions: MTCC 424, 48 h, read-out: DIZ
# [24] = system: Staphylococcus aureus; assay: Antibacterial activity against Staphylococcus aureus MTCC 1430 at 1000 ug/ml after 48 hr by cup-plate method; conditions: MTCC 1430, 48 h, read-out: DIZ
# [25] = system: Bacillus subtilis; assay: Antibacterial activity against Bacillus subtilis MTCC 441 at 1250 ug/ml after 48 hr by cup-plate method; conditions: MTCC 441, 48 h, read-out: DIZ
# [26] = system: Staphylococcus aureus; assay: Antibacterial activity against Staphylococcus aureus MTCC 1430 at 250 ug/ml after 48 hr by cup-plate method; conditions: MTCC 1430, 48 h, read-out: DIZ
# [27] = system: Aspergillus niger; assay: Antifungal activity against Aspergillus niger MTCC 2546 at 1000 ug/ml after 48 hr by cup-plate method; conditions: MTCC 2546, 48 h, read-out: DIZ
# [28] = system: Bacillus subtilis; assay: Antibacterial activity against Bacillus subtilis MTCC 441 at 100 ug/ml after 48 hr by cup-plate method; conditions: MTCC 441, 48 h, read-out: DIZ
# [29] = system: Penicillium chrysogenum; assay: Antifungal activity against Penicillium chrysogenum MTCC 161 at 1000 ug/ml after 48 hr by cup-plate method; conditions: MTCC 161, 48 h, read-out: DIZ
# [30] = system: Micrococcus luteus; assay: Antibacterial activity against Micrococcus luteus MTCC 1538 at 250 ug/ml after 48 hr by cup-plate method; conditions: MTCC 1538, 48 h, read-out: DIZ
# [31] = system: Aspergillus niger; assay: Antifungal activity against Aspergillus niger MTCC 2546 at 250 ug/ml after 48 hr by cup-plate method; conditions: MTCC 2546, 48 h, read-out: DIZ
# [32] = system: Escherichia coli; assay: Antibacterial activity against Escherichia coli MTCC 1573 at 750 ug/ml after 48 hr by cup-plate method; conditions: MTCC 1573, 48 h, read-out: DIZ
# [33] = system: Escherichia coli; assay: Antibacterial activity against Escherichia coli MTCC 1573 at 500 ug/ml after 48 hr by cup-plate method; conditions: MTCC 1573, 48 h, read-out: DIZ
# [34] = system: Penicillium chrysogenum; assay: Antifungal activity against Penicillium chrysogenum MTCC 161 at 1250 ug/ml after 48 hr by cup-plate method; conditions: MTCC 161, 48 h, read-out: DIZ
# [35] = system: Aspergillus niger; assay: Antifungal activity against Aspergillus niger MTCC 2546 at 500 ug/ml after 48 hr by cup-plate method; conditions: MTCC 2546, 48 h, read-out: DIZ
# [36] = system: Micrococcus luteus; assay: Antibacterial activity against Micrococcus luteus MTCC 1538 at 1250 ug/ml after 48 hr by cup-plate method; conditions: MTCC 1538, 48 h, read-out: DIZ
# [37] = system: Bacillus subtilis; assay: Antibacterial activity against Bacillus subtilis MTCC 441 at 1000 ug/ml after 48 hr by cup-plate method; conditions: MTCC 441, 48 h, read-out: DIZ
# [38] = system: Escherichia coli; assay: Antibacterial activity against Escherichia coli MTCC 1573 at 100 ug/ml after 48 hr by cup-plate method; conditions: MTCC 1573, 48 h, read-out: DIZ
# [39] = system: Staphylococcus aureus; assay: Antibacterial activity against Staphylococcus aureus MTCC 1430 after 24 to 48 hr by tube dilution method
# [40] = system: Micrococcus luteus; assay: Antibacterial activity against Micrococcus luteus MTCC 1538 after 24 to 48 hr by tube dilution method
# [41] = system: Bacillus pumilus; assay: Antibacterial activity against Bacillus pumilus MTCC 1456 at 1250 ug/ml after 48 hr by cup-plate method; conditions: MTCC 1456, 48 h, read-out: DIZ
# [42] = system: Penicillium chrysogenum; assay: Antifungal activity against Penicillium chrysogenum MTCC 161 at 500 ug/ml after 48 hr by cup-plate method; conditions: MTCC 161, 48 h, read-out: DIZ
# [43] = system: Staphylococcus aureus; assay: Antibacterial activity against Staphylococcus aureus MTCC 1430 at 1250 ug/ml after 48 hr by cup-plate method; conditions: MTCC 1430, 48 h, read-out: DIZ
# [44] = system: Micrococcus luteus; assay: Antibacterial activity against Micrococcus luteus MTCC 1538 at 750 ug/ml after 48 hr by cup-plate method; conditions: MTCC 1538, 48 h, read-out: DIZ
structure (smiles),measurement,setting,value
O=[N+]([O-])c1ccc(C2CC(c3cccc4ccccc34)=NN2c2ccccc2)cc1 (centres undefined),MIC,[1],30 µg/mL
same,zone of inhibition at 500 µg/mL,[2],10 mm
same,zone of inhibition at 750 µg/mL,[3],17 mm
same,zone of inhibition at 250 µg/mL,[4],10 mm
same,zone of inhibition at 250 µg/mL,[5],9 mm
same,zone of inhibition at 500 µg/mL,[6],12 mm
same,zone of inhibition at 1250 µg/mL,[7],18 mm
same,zone of inhibition at 1000 µg/mL,[8],15 mm
same,zone of inhibition at 1250 µg/mL,[9],20 mm
same,zone of inhibition at 750 µg/mL,[10],12 mm
same,MIC,[11],50 µg/mL
same,zone of inhibition at 500 µg/mL,[12],15 mm
same,zone of inhibition at 250 µg/mL,[13],10 mm
same,zone of inhibition at 1250 µg/mL,[14],23 mm
same,zone of inhibition at 500 µg/mL,[15],10 mm
same,zone of inhibition at 500 µg/mL,[16],11 mm
same,MIC,[17],50 µg/mL
same,zone of inhibition at 750 µg/mL,[18],13 mm
same,zone of inhibition at 1000 µg/mL,[19],17 mm
same,zone of inhibition at 100 µg/mL,[20],9 mm
same,MIC,[21],150 µg/mL
same,zone of inhibition at 250 µg/mL,[22],14 mm
same,zone of inhibition at 750 µg/mL,[23],14 mm
same,zone of inhibition at 1000 µg/mL,[24],15 mm
same,zone of inhibition at 1250 µg/mL,[25],21 mm
same,zone of inhibition at 250 µg/mL,[26],10 mm
same,zone of inhibition at 1000 µg/mL,[27],21 mm
same,zone of inhibition at 100 µg/mL,[28],12 mm
same,zone of inhibition at 1000 µg/mL,[29],16 mm
same,zone of inhibition at 250 µg/mL,[30],8 mm
same,zone of inhibition at 250 µg/mL,[31],12 mm
same,zone of inhibition at 750 µg/mL,[32],13 mm
same,zone of inhibition at 500 µg/mL,[33],11 mm
same,zone of inhibition at 1250 µg/mL,[34],18 mm
same,zone of inhibition at 500 µg/mL,[35],13 mm
same,zone of inhibition at 1250 µg/mL,[36],17 mm
same,zone of inhibition at 1000 µg/mL,[37],19 mm
same,zone of inhibition at 100 µg/mL,[38],9 mm
same,MIC,[39],150 µg/mL
same,MIC,[40],200 µg/mL
same,zone of inhibition at 1250 µg/mL,[41],18 mm
same,zone of inhibition at 500 µg/mL,[42],13 mm
same,zone of inhibition at 1250 µg/mL,[43],18 mm
same,zone of inhibition at 750 µg/mL,[44],11 mm
